Assays:
human thrombin = biological target: T1, human thrombin (Homo sapiens, UniProt P00734); experiment: Determination of thrombin Ki (chromogenic substrate S-2238); assay type: biochemical
T1 construct: Human thrombin (308 NIH; Sigma); purchased Sigma
Protocol: (§1) The enzyme inhibitory effect of the compounds can be identified by determination of inhibition constant Ki. It denotes the degree of dissociation of the enzyme-inhibitor complex. Low dissociation constant means high potency of inhibitor. Ki can be determined during reaction of the enzyme with a specific chromogenic substrate which under hydrolysis by the enzyme develops color. Reaction in time is recorded by spectrophotometry and Ki is calculated from kinetic parameters (Vmax, Km, reaction rate).
1. Determination of Thrombin Ki
The ability of a compound to act as an inhibitor of human thrombin catalytic activity was assessed by determination of Ki.
A mixture of 50 μL of buffer, 50 μL of inhibitor in water (final concentrations from 10 to 100 μM) and 50 μL of thrombin (0.5 NIH U/mL f.c.) was incubated for 15 minutes at room temperature.
Thrombin activity was determined from the change in absorbance in the linear part of the velocity graph. […] The Km for the substrate was determined under the test conditions with at least 6 substrate concentrations varying around Km and calculated with the non-linear regression programme Curve expert.

trypsin = biological target: T2, trypsin (UniProt P00760); experiment: Determination of trypsin Ki (chromogenic substrate S-2222); assay type: biochemical; details: S-2222, 25° C.
T2 construct: Trypsin (6000 E/mg prot; Sigma): dissolved in distilled water to give a stock solution of 300 E/mL
T2 sequence (P00760 1-246): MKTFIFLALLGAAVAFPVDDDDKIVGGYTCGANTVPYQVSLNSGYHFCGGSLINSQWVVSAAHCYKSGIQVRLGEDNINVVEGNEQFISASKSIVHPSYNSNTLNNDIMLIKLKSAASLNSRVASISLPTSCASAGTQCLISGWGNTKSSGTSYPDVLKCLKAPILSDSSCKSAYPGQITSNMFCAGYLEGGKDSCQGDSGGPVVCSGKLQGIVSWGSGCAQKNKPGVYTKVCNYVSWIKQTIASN
Protocol: as §1
2. Determination of Trypsin Ki
The ability of a compound to act as an inhibitor of trypsin catalytic activity was assessed by determination of Ki.
50 μL of buffer, 50 μL of test compound in water (final concentrations from 50 to 300 μM) and 50 μL of trypsin (3 mE/mL f.c.) were incubated for 15 minutes at room temperature.
Trypsin activity was determined from the change in absorbance in the linear part of velocity graph. […] The Km for the substrate was determined under test conditions with at least 6 substrate concentrations varying around Km and calculated with the non-linear regression program Curve expert.

trypsin / thrombin = experiment: Selectivity to thrombin (ratio of Ki for trypsin to Ki for thrombin); assay type: biochemical
Protocol: 3. Selectivity to Thrombin
By the use of other serine protease like trypsin with the appropriate chromogenic substrate, selectivity of inhibitors with respect to thrombin was determined. Selectivity of an inhibitor is expressed as a ratio of Ki for trypsin to Ki for thrombin.

[1] = tested on: normal pooled human plasma; experiment: Activated partial thromboplastin time (aPTT) coagulation assay; assay type: biochemical; details: concentration of inhibitor that doubled the clotting time
Protocol: (§2) The Anticoagulant effect of thrombin inhibitors was measured by thrombin time (TT), activated partial thromboplastin time (aPTT), and prothrombin time (PT) assays. Inhibitors were added to normal pooled human plasma over a range of concentrations and clotting was recorded in an automated coagulometer (Fibrintimer, Dade/Behring). The concentration of inhibitor that doubled the clotting time was determined for each assay.
2. Activated Partial Thromboplastin Time (aPTT)
Incubation of plasma with the optimal quantity of phospholipids and a surface activator leads to activation of factors of the intrinsic coagulation pathway. The addition of calcium ions triggers the coagulation process. The time of fibrin clot formation wass measured. aPTT was used as a screening test for coagulation disorders of the intrinsic coagulation pathway. It is prolonged due to intrinsic coagulation factors deficit or due to the presence of inhibitors.
b) Reagents • Pathromtin SL (Dade/Behring): silicon dioxide particles, vegetable phospholipids, sodium chloride (2.4 g/L), Hepes (14.3 g/L, pH 7.6), sodium azide (<1 g/L). […]
Inhibitor (10 μL working solution, concentrations from 5 μM to 100 μM) and pooled plasma (90 μL) were incubated at 37° C. for 5 minutes. […] The addition of calcium chloride (100 μL) triggered the coagulation process and clot formation was detected with a coagulometer in duplicate.

[2] = tested on: normal pooled human plasma; experiment: Prothrombin time (PT) coagulation assay; assay type: biochemical; details: concentration of inhibitor that doubled the clotting time
Protocol: as §2
An optimal amount of thromboplastin and calcium are added to plasma sample and the time of fibrin clot formation wass measured. PT is a rapid, sensitive screening test for coagulation disorders of the extrinsic pathway. It is well suited for the induction and monitoring of oral anticoagulant therapy, for diagnosing genetic or acquired deficiencies in coagulation factors and checking the synthesis performance of the liver in hepatic diseases. PT is prolonged due to extrinsic coagulation factors deficit or due to the presence of inhibitors.
b) Reagents • Thromboplastin (Thromborel S, Dade/Behring): was dissolved in 4 mL of distilled water. […]
Inhibitor (10 μL working solution, concentrations from 5 μM to 100 μM) and pooled plasma (90 μL) were incubated at 37° C. for 5 minutes and then Thromborel S (200 μL) was added. Clot formation was measured with a coagulometer in duplicate.

[3] = tested on: normal pooled human plasma; experiment: Thrombin time (TT) coagulation assay; assay type: biochemical; details: concentration of inhibitor that doubled the clotting time
Protocol: as §2
In a plasma sample thrombin converts fibrinogen into fibrin and the clot is formed. The time for clot formation was measured. Thrombin time is prolonged due to disorders in fibrin polymerisation or due to the presence of thrombin inhibitors.
b) Reagents • Thrombin (Test Thrombin Reagent, 1.5 IU/mL, Dade/Behring): lyophilized bovine thrombin was dissolved in 5 mL of HEPES (25 mmol/L, pH 7.4). The reagent was warmed to 37° C. prior to the assay. • Normal pooled plasma: venous blood from 11 apparently healthy volunteers was collected (1 part 0.11 mol/L sodium citrate solution with 9 parts of blood) and centrifuged immediately at 2000×g for 30 minutes at 4° C. […]
Inhibitors (10 μL working solution, concentrations from 2.5 μM to 100 μM) and pooled plasma (90 μL) were incubated at 37° C. for 5 minutes and then thrombin (200 μL) was added. Clot formation was measured in a coagulometer in duplicate.

[4] = tested on: thrombus formation in a venous thrombosis model in the rat; experiment: Stasis-induced thrombosis (venous thrombosis model); assay type: in vivo; details: iv, i.v. 5 min before thrombosis induction, tissue factor plus stasis, read-out: Stasis-induced thrombosis (ED50 ± SD)
Protocol: 1. Stasis-Induced Thrombosis
Using a combination of thrombogenic challenge (0.045 ng/kg of tissue factor) and stasis, compounds were tested for their abillity to affect thrombus formation in a venous thrombosis model in the rat.
Thrombus formation by a combination of stasis and hypercoagulability was induced as described by Vogel et al. (Thromb. Res., 1989, 54, 399410). Male sprague-Dawley rats (250-300 g) were anaesthetized with sodium pentobarbitone (30 mg/kg, i.p.). The abdomen of the animals was surgically opened and after careful dissection, the vena cava was exposed and dissected free from surrounding tissue. Saline, or the various compounds were administered i.v. 5 min before thrombosis induction. […] Human tissue factor (0.045 ng/kg, i.v.) was injected into the dorsal vein of the penis. Ten seconds after the end of the injection, stasis were established by tightening the […] the proximal and then the distal. The abdominal cavity was provisionally closed and stasis was maintained for 20 minutes. The cavity was then reopened, the ligated segment was opened longitudinally and the thrombus formed was removed, rinsed, blotted on filter paper, dried overnight at 60° C. and weighed. Under these experimental conditions, control thrombus weight was 5.5±0.1 mg (n=15).

[5] = tested on: transection of the tail of rats; experiment: Bleeding time (transection of the tail); assay type: in vivo; details: rat tail transection, 1 mg/kg i.v. 5 min before transection
Protocol: The hemorrhagic risk associated to a treatment with selected compounds were determined using an experimental model of bleeding: transection of the tail of rats.
Bleeding time was determined by transection of the tail, 2 mm from the tip, of […] rats (30 mg/kg i.p.). The compounds were injected i.v. at the indicated doses 5 min before tail transection. Blood was carefully blotted every 15 s on a filter paper. Haemostasis was considered to be achieved when no more blood stain was observed over 1 min.

[6] = text comparison of SI 20025 compound with compound of the present invention

Row | melting point | Ki (human thrombin; human thrombin, S-2238, 25° C.) | Ki (trypsin) | SMILES | further results
1 | 151 to 154 °C | – | – | COc1ccc2cc(S(=O)(=O)NN(Cc3cccc(C(=N)N)c3)C(=O)N3CCC(C)CC3)ccc2c1.Cl | –
2 | 151 to 154 °C | – | – | Cl.N=C(N)c1cccc(CN(NS(=O)(=O)c2ccc3ccccc3c2)C(=O)N2CCCCCC2)c1 | –
3 | 151 to 154 °C | – | – | COc1ccc2cc(S(=O)(=O)NN(Cc3cccc(C(=N)N)c3)C(=O)N3CCCCCC3)ccc2c1.Cl | –
4 | – | 469 nM | > 68300 nM | CC1CCN(C(=O)N(Cc2cccc(C(=N)NO)c2)NS(=O)(=O)c2ccc3ccccc3c2)CC1 | Ki trypsin/Ki thrombin (trypsin / thrombin): 146
5 | – | 4 nM | 112 nM | CC1CCN(C(=O)N(Cc2cccc(C(=N)N)c2)NS(=O)(=O)c2ccc3ccccc3c2)CC1 | –
6 | – | 11 nM | – | COc1ccc2cc(S(=O)(=O)NN(Cc3cccc(C(=N)N)c3)C(=O)N3CCC(C)CC3)ccc2c1 | aPTT [1]: 2.1 µM; PT [2]: 2.7 µM; TT [3]: 2.0 µM
7 | – | – | 17900 nM | COc1ccc2cc(S(=O)(=O)NN(Cc3cccc(C(=N)NO)c3)C(=O)N3CCCCCC3)ccc2c1 | Ki trypsin/Ki thrombin (trypsin / thrombin): 29
8 | – | 9 nM | 53 nM | COc1ccc2cc(S(=O)(=O)NN(Cc3cccc(C(=N)N)c3)C(=O)N3CCCCCC3)ccc2c1 | Ki trypsin/Ki thrombin (trypsin / thrombin): 5.84
9 | 101 to 103 °C | – | – | CC1CCCCN1C(=O)N(Cc1cccc(/C(N)=N/O)c1)NS(=O)(=O)c1ccc2ccccc2c1 (stereo not shown) [Example 13, N′-hydroxy-3-{[1-[(2-methyl-1-piperidinyl)carbonyl]-2-(2-naphthylsulfonyl)hydrazino]methyl}benzenecarboximidamide] | –
10 | 172 to 175 °C | – | – | COc1ccc2cc(S(=O)(=O)NN(Cc3cccc(/C(N)=N/O)c3)C(=O)N3CCCCC3C)ccc2c1 (stereo not shown) [Example 15, N′-Hydroxy-3-({2-[(6-methoxy-2-naphthyl)sulfonyl]-1-[(2-methyl-1-piperidinyl)carbonyl]hydrazino}methyl)benzenecarboximidamide] | –
11 | 154 to 156 °C | – | – | COc1ccc2cc(S(=O)(=O)NN(Cc3cccc(/C(N)=N/O)c3)C(=O)N3CCC(C)CC3)ccc2c1 [Example 17, N′-Hydroxy-3-({2-[(6-methoxy-2-naphthyl)sulfonyl]-1-[(4-methyl-1-piperidinyl)carbonyl]hydrazino}methyl)benzenecarboximidamide] | –
12 | 173 to 175 °C | – | – | COc1ccc2cc(S(=O)(=O)NN(Cc3cccc(/C(N)=N/O)c3)C(=O)N3CCCCCC3)ccc2c1 [Example 23, 3-({1-(1-Azepanylcarbonyl)-2-[(6-methoxy-2-naphthyl)sulfonyl]hydrazino}methyl)-N′-hydroxybenzenecarboximidamide] | –
13 | – | – | – | N=C(N)c1ccc(CN(NS(=O)(=O)c2ccc3ccccc3c2)C(=O)N2CCCCCC2)cc1 [compound a, reference compound] | Ki (human thrombin; [6]): 32 nM
14 | – | – | – | N=C(N)Cc1ccc(CN(NS(=O)(=O)c2ccc3ccccc3c2)C(=O)N2CCCCCC2)cc1 [compound b] | Ki (human thrombin; [6]): 5 nM
15 | – | 594 nM | 32200 nM | N/C(=N\O)c1cccc(CN(NS(=O)(=O)c2ccc3ccccc3c2)C(=O)N2CCCCCC2)c1 [drawing 45] | Ki trypsin/Ki thrombin (trypsin / thrombin): 54
16 | – | 5 nM | 143 nM | N=C(N)c1cccc(CN(NS(=O)(=O)c2ccc3ccccc3c2)C(=O)N2CCCCCC2)c1 [drawing 46] | –
17 | – | – | – | N/C(=N\O)c1cccc(CN(NS(=O)(=O)c2ccc3ccccc3c2)C(=O)N2CCCCCC2)c1 [drawing 49] | ED50 [4]: 0.29 ± 0.011 mg/kg; Bleeding (fold increase at 1 mg/kg) [5]: 3.3 fold increase
18 | – | – | – | N=C(N)c1cccc(CN(NS(=O)(=O)c2ccc3ccccc3c2)C(=O)N2CCCCCC2)c1 [drawing 50] | ED50 [4]: 0.07 ± 0.005 mg/kg

Source: US7285547B2, “Amidinophenylalanine derivatives as thrombin inhibitors” (LEK Pharmaceuticals d.d., priority 2000, dated 2007)
